In publication PMC12752627, “Discovery of a Potent and Selective TEAD Degrader with Durable Degradation Activity” (Advanced Science, 2025):

Tested on: 867 cancer cell lines
Assay: PRISM assay (barcoded cell line screening, 5 days);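 note: top test concentration 10 mM in eight-point dilution series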
Type: cell-based
Parameters: KG-FP-003-AUC: scale not given here
Details: for PRISM AUC: 5 days
Description: The principle of the PRISM assay has been described elsewhere and was conducted as previously outlined by the PRISM team at the Broad Institute.^[ [14], [31] ^] In PRISM (MTS027) experiments, KG‐FP‐003 was tested across 867 different cancer cell lines. Cells were treated with eight concentration gradients, ranging from 4.6 nM to […], in triplicate dilutions over a period of five days. Each plate was treated with 20 µM bortezomib as a positive control and DMSO as a negative control. Three replicate experiments were performed for each compound. The resulting data were analyzed using GraphPad PRISM 9.5.

In the case of `CNC(=O)c1cc2c(c(F)c1-c1c(Cl)c(F)cc3c1C[C@@](CN[C@H]1CC[C@H](C(=O)N4CCC(CC5CCN(C(=O)COc6ccc(N7CCC(=O)NC7=O)c(C)c6)CC5)CC4)CC1)(c1ccccc1)O3)[C@@H](O)[C@@H](C)C2` [KG-FP-003], the “PRISM AUC” value (Cell line: HOS) is reported as 0.53, the “PRISM AUC” value (Cell line: KLE) is reported as 0.53 and the KG-FP-003-AUC (DANG_PANCREAS ACH-000243 PR500) is reported as 0.98. It also gave a KG-FP-003-AUC (DAOY_CENTRAL_NERVOUS_SYSTEM ACH-000211 PR300) of 0.93, a KG-FP-003-AUC (DAOY_CENTRAL_NERVOUS_SYSTEM ACH-000211 PR500) of 0.92 and a KG-FP-003-AUC (DBTRG05MG_CENTRAL_NERVOUS_SYSTEM ACH-000863 PR500) of 0.64. The KG-FP-003-AUC (DEL_HAEMATOPOIETIC_AND_LYMPHOID_TISSUE ACH-000233 PR300) was 0.87, the KG-FP-003-AUC (DETROIT562_UPPER_AERODIGESTIVE_TRACT ACH-000207 PR500) was 0.81 and the KG-FP-003-AUC (DKMG_CENTRAL_NERVOUS_SYSTEM ACH-000244 PR500) was 0.85. It also gave a KG-FP-003-AUC (DL_SOFT_TISSUE ACH-001059 PR300) of 0.70, a KG-FP-003-AUC (DMS53_LUNG ACH-000698 PR300) of 1.00 and a KG-FP-003-AUC (DMS273_LUNG ACH-000749 PR500) of 0.99. It also gave a KG-FP-003-AUC (DND41_HAEMATOPOIETIC_AND_LYMPHOID_TISSUE ACH-000981 PR300) of 0.75, a KG-FP-003-AUC (DOHH2_HAEMATOPOIETIC_AND_LYMPHOID_TISSUE ACH-000056 PR300) of 0.76 and a KG-FP-003-AUC (DOTC24510_CERVIX ACH-001341 PR300) of 0.78. The KG-FP-003-AUC (DU145_PROSTATE ACH-000979 PR500) was 0.93, the KG-FP-003-AUC (DU4475_BREAST ACH-000258 PR300) was 0.97 and the KG-FP-003-AUC (DV90_LUNG ACH-000925 PR500) was 1.00. It also gave a KG-FP-003-AUC (EB1_HAEMATOPOIETIC_AND_LYMPHOID_TISSUE ACH-000877 PR300) of 0.99, a KG-FP-003-AUC (EBC1_LUNG ACH-000563 PR500) of 0.77 and a KG-FP-003-AUC (ECC2_BILIARY_TRACT ACH-001997 PR300) of 0.76. It also gave a KG-FP-003-AUC (ECGI10_OESOPHAGUS ACH-000305 PR500) of 0.96, a KG-FP-003-AUC (EFE184_ENDOMETRIUM ACH-000435 PR300) of 0.72 and a KG-FP-003-AUC (EFM19_BREAST ACH-000330 PR300) of 0.99. It also gave a KG-FP-003-AUC (EFM192A_BREAST ACH-000117 PR500) of 0.99, a KG-FP-003-AUC (EFO21_OVARY ACH-000308 PR500) of 0.71 and a KG-FP-003-AUC (EFO27_OVARY ACH-000936 PR500) of 0.77. The KG-FP-003-AUC (EGI1_BILIARY_TRACT ACH-001494 PR300) was 0.88, the KG-FP-003-AUC (EKVX_LUNG ACH-000706 PR300) was 0.71 and the KG-FP-003-AUC (EM2_HAEMATOPOIETIC_AND_LYMPHOID_TISSUE ACH-000295 PR300) was 0.94. It also gave a KG-FP-003-AUC (EMTOKA_ENDOMETRIUM ACH-001495 PR300) of 0.83, a KG-FP-003-AUC (EOL1_HAEMATOPOIETIC_AND_LYMPHOID_TISSUE ACH-000198 PR300) of 0.69 and a KG-FP-003-AUC (ES2_OVARY ACH-000906 PR500) of 0.62. It also gave a KG-FP-003-AUC (ESS1_ENDOMETRIUM ACH-000913 PR500) of 0.56, a KG-FP-003-AUC (EW8_BONE ACH-000499 PR300) of 0.98 and a KG-FP-003-AUC (EWS502_BONE ACH-000279 PR300) of 0.99. The KG-FP-003-AUC (EWS502_BONE ACH-000279 PR500) was 0.99, the KG-FP-003-AUC (FADU_UPPER_AERODIGESTIVE_TRACT ACH-000846 PR500) was 0.92 and the KG-FP-003-AUC (FLO1_OESOPHAGUS ACH-001500 PR300) was 0.75. It also gave a KG-FP-003-AUC (FTC133_THYROID ACH-000903 PR500) of 0.99, a KG-FP-003-AUC (FTC238_THYROID ACH-000897 PR500) of 0.91 and a KG-FP-003-AUC (G292CLONEA141B1_BONE ACH-000082 PR300) of 0.64. For the same compound, the KG-FP-003-AUC (G292CLONEA141B1_BONE ACH-000082 PR500) was 0.53, the KG-FP-003-AUC (G361_SKIN ACH-000572 PR500) was 1.00 and the KG-FP-003-AUC (G402_SOFT_TISSUE ACH-000375 PR300) was 0.43. For the same compound, the KG-FP-003-AUC (G402_SOFT_TISSUE ACH-000375 PR500) was 0.69, the KG-FP-003-AUC (G415_BILIARY_TRACT ACH-001850 PR300) was 0.65 and the KG-FP-003-AUC (GAMG_CENTRAL_NERVOUS_SYSTEM ACH-000098 PR500) was 0.45. The KG-FP-003-AUC (GB2_BILIARY_TRACT ACH-001961 PR300) was 0.92, the KG-FP-003-AUC (GCIY_STOMACH ACH-000047 PR500) was 0.98 and the KG-FP-003-AUC (GCT27_TESTIS ACH-001502 PR300) was 0.73. The KG-FP-003-AUC (GCT_SOFT_TISSUE ACH-000835 PR500) was 0.53 and the KG-FP-003-AUC (GI1_CENTRAL_NERVOUS_SYSTEM ACH-000756 PR500) was 0.74.
